From patent US6448405B1, “Steroid receptor modulator compounds and methods” (Ligand Pharmaceuticals Incorporated, priority 1994, dated 2002) come the findings set out here.

This assay has as its target T1, human mineralocorticoid receptor (MR) (Homo sapiens, UniProt P08235).
T1 construct: expressed in transfected cells; host or cells: CV-1 cells, transient transfection
T1 sequence (P08235 1-984): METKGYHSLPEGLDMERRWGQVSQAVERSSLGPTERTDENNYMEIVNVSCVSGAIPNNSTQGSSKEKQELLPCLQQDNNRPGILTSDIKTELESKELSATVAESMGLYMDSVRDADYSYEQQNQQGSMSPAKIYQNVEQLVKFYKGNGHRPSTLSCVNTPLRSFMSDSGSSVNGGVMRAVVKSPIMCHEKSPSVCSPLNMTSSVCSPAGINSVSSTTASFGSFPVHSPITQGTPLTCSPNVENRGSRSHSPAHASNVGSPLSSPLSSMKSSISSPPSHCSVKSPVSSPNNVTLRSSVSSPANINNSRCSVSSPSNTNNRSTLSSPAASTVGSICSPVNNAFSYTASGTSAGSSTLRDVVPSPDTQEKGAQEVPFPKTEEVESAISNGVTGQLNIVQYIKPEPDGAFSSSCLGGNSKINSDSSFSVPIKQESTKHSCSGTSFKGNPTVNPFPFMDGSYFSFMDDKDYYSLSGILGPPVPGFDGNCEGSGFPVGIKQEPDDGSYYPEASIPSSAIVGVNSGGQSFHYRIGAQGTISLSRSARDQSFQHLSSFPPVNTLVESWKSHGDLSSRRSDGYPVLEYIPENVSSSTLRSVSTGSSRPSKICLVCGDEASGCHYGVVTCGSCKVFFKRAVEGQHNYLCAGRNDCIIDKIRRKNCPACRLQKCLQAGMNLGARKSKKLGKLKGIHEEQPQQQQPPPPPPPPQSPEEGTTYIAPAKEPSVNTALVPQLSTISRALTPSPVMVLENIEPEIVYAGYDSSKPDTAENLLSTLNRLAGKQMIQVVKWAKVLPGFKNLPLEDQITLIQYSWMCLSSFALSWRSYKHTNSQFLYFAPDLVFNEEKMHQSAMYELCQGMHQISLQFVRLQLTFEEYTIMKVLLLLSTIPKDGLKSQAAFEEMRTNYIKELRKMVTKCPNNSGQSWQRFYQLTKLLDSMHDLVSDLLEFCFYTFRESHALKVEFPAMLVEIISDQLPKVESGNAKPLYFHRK
As to the kind of experiment: Co-transfection assay, MR antagonist activity, CV-1 cells (pRShMR). The assay is classed as cell-based. The settings on record: antagonist mode; for MR Antagonist CV-1 Cells Efficacy (%): Table 4, % maximal inhibition; for IC50: aldosterone at its EC50, read-out: MR Antagonist CV-1 Cells Potency.

With `CC1=CC(C)(C)Nc2ccc3c(c21)C(c1ccccc1)Oc1ccccc1-3` (racemic) [Compound 161, (R/S)-1,2-Dihydro-2,2,4-trimethyl-5-phenyl-5H-chromeno[3,4-f]quinoline], the “MR Antagonist CV-1 Cells Efficacy (%)” value stood at 58% and the IC50 was 1000 nM.
Regarding `CC1=CC(C)(C)Nc2ccc3c(c21)C(c1cccc(C(F)(F)F)c1)Oc1ccccc1-3` (racemic) [Compound 195, (R/S) 1,2-Dihydro-2,2,4-trimethyl-5-[3-(trifluoromethyl)phenyl]-5H-chromeno[3,4-f]quinoline], the “MR Antagonist CV-1 Cells Efficacy (%)” value was 47% and the IC50 was determined as 1900 nM.
